Reference: PMC5556071, “ATR inhibition facilitates targeting of leukemia dependence on convergent nucleotide biosynthetic pathways” (Nature Communications, 2017)
Values joined by “and” are separate entries in the source; they are usually repeats but may differ in a detail not shown here. Equal values may be shown once.

Tested on: CEM cells
Test: Non-targeted LC-MS metabolite profiling: percent [13C6]glucose labeling and relative metabolite levels
Format: cell-based, human
Details: CEM cells, 12 h following release from G1 arrest, replicates #1-#6
From the text: To further investigate the functions of dCK and ATR at the G1/S transition in CEM cells, a non-targeted liquid chromatography mass spectrometry (LC-MS) assay was used to determine the utilization of labeled [^13C6]glucose and [^13C9,^15N3]deoxycytidine, the main substrates for de novo and salvage nucleotide biosynthesis, respectively. Of the 166 metabolites identified in CEM cells treated with VE-822 and/or dCKi, 105 metabolites found in all four treatment groups contained glucose-derived ^13C atoms. […] These metabolites included intermediates such as rUTP, rCTP and rCDP in the de novo dCTP biosynthesis (Fig. 1d). […] However, several deoxyribonucleotides, including dCTP, were below the limit of detection of the non-targeted LC-MS approach, raising the concern that the sensitivity of this assay is not sufficient to measure the contribution of the salvage pathway or the ratio of de novo and salvage biosynthesis to these pools. To address this problem, a newly developed targeted MS assay was developed (Fig. 1e and Supplementary Fig. 3). In this assay, samples containing either extracted dNTPs or hydrolyzed DNA from labeled cells are separated by LC for detection by a triple quadrupole mass spectrometer using multiple reaction monitoring (LC-MS/MS-MRM). The first (Q1) and third (Q3) quadrupoles function as mass filters, while the second (Q2) quadrupole serves as a collision chamber (Fig. 1e). For instance, to profile the biosynthetic composition of deoxycytidine (dC) derived from hydrolyzed DNA or dCTP, an intact, protonated dC ion is selected in Q1, followed by fragmentation of the glycosidic bond, which releases protonated cytosine in Q2, that is filtered in Q3 and detected to generate an ion chromatogram. The peak areas for the ion chromatograms of salvage [^13C9,^15N3]dC (red trace), de novo [^13C5]dC (black trace, from [^13C6]glucose) and unlabeled dC (gray trace) (Fig. 1e) are used to determine the relative contributions of the de novo and salvage routes both to dCTP pools and to DNA-incorporated dCTP.
Cells were transferred into RPMI-1640 without glucose and supplemented with 10% dialyzed FBS (Gibco) containing the following labeled substrates: precursors for de novo [U-^13C6]glucose (Sigma-Aldrich, 389374) at 11 mM; precursors for purine salvage [U-^13C10,^15N5]dA (Cambridge Isotopes, CIL 3896), [^15N5]dA (Cambridge Isotopes, NLM-3895) and [^15N5]dG (Cambridge Isotopes, NLM-3899) at 5 µM or as indicated; and precursors for pyrimidine salvage: [U-^13C9,^15N3]dC (Silantes, 124603602) and [U-^13C10,^15N2]dT (Cambridge Isotopes, CNLM-3902) at 5 µM and [^15N2]orotate (Cambridge Isotopes, NLM-1048) at indicated concentrations. The cells were incubated for 12 h or as indicated before sample collection and processing. […]
Non-targeted LC-MS metabolic assays. 1 x 10^6 cells were washed with ice-cold 150 mM ammonium acetate twice before adding 1 mL of ice-cold 80% methanol with 10 nM norvaline as an internal standard. After vigorous vortexing, samples were centrifuged at maximum speed, the aqueous layer was transferred to a glass vial and the metabolites were dried under vacuum. Metabolites were resuspended in 50 μL 70% acetonitrile (ACN) and 5 μL of this solution used for the mass spectrometer-based analysis. The analysis was performed on a Q Exactive (Thermo Scientific) in polarity-switching mode with positive voltage 4.0 kV and negative voltage 4.0 kV. The mass spectrometer was coupled to an UltiMate 3000RSLC (Thermo Scientific) UHPLC system. Mobile phase A was 5 mM ammonium acetate (NH4AcO), pH 9.9, B was acetonitrile and the separation achieved on a Luna […] NH2 100 A column (150 × 2.0 mm, Phenomenex). The flow was 200 μL/min, and the gradient ran from 15% A to 95% A in 18 min, followed by an isocratic step for 9 min and re-equilibration for 7 min. Metabolites were detected and quantified as area under the curve based on retention time and accurate mass (≤ 3 p.p.m.) using the TraceFinder 3.1 (Thermo Scientific). Relative amounts of […]

[1] = metabolite 2-HG (C02630), listed as V
[2] = metabolite 2-HIC (C03264), listed as V
[3] = metabolite 3PG (C00197), listed as V
[4] = metabolite 5-Oxoproline (C01879), listed as V
[5] = metabolite A (C00212), listed as V
[6] = metabolite ADP (C00008), listed as V
[7] = metabolite AMP (C00020), listed as V
[8] = metabolite ATP (C00002), listed as V
[9] = metabolite Ac-carnitine (C02571), listed as V
[10] = metabolite Ac-choline (C01996), listed as V
[11] = metabolite Aconitate (C00417), listed as V
[12] = metabolite Adenine (C00034), listed as V
[13] = metabolite Ala (C00041), listed as V
[14] = metabolite Allantoin (C02350), listed as V
[15] = metabolite Arg (C00062), listed as V
[16] = metabolite Arg-Succ (C03406), listed as V

CNCc1ccc(-c2cc(-c3nc(-c4ccc(S(=O)(=O)C(C)C)cc4)cnc3N)on2)cc1 [VE-822]
Relative level, Sarc (C00213) (listed as V): 1.3 (2×) and 1.2 and 0.569 and 0.751 and 0.6
Relative level, Ser (C00065) (listed as V): 1.4 and 1.5 (2×) and 0.9 and 1.0 and 0.949
Relative level, Shikimate (C00493) (listed as V): 1.3 and 1.2 and 1.5 and 1.1 and 0.8 (2×)
Relative level, Succ (C00042) (listed as V): 1.6 (2×) and 1.3 and 1.1 and 0.5 (2×)
Relative level, T (C00214) (listed as V): 1.1 (2×) and 1.3 (2×) and 1.2 and 1.4
Relative level, Thr (C00188) (listed as V): 1.5 and 1.6 (2×) and 1.0 and 0.949 and 0.9
Relative level, Thymine (C00178) (listed as V): 1.4 and 1.5 (2×) and 1.0 (2×) and 1.2
Relative level, Trigonelline (C01004) (listed as V): 1.3 (3×) and 1.5 and 0.8 and 1.2
Relative level, Trp (C00078) (listed as V): 1.4 and 1.5 (2×) and 0.9 (2×) and 1.0
Relative level, Tyr (C00082) (listed as V): 1.4 and 1.6 (2×) and 0.9 (3×)
Relative level, Tyramine (C00483) (listed as V): 1.0 and 1.1 and 1.7 and 0.8 (2×) and 0.7
Relative level, UDP (C00015) (listed as V): 2.4 and 1.3 and 1.6 and 1.1 and 0.7 and 0.6
Relative level, UDP-Glc (C00029) (listed as V): 2.4 and 2.0 and 2.8 and 1.5 and 1.4 and 1.7
Relative level, UDP-GlcNAc (C00043) (listed as V): 1.2 and 1.1 and 1.4 and 0.747 and 0.8 and 0.9
Relative level, UMP (C00105) (listed as V): 2.6 and 2.3 and 2.5 and 2.0 and 0.7 (2×)
Relative level, UTP (C00075) (listed as V): 1.2 and 0.571 and 0.7 and 0.75 and 0.4 and 0.355
Relative level, Uracil (C00106) (listed as V): 1.2 (2×) and 2.0 and 2.6 and 1.1 and 0.8
Relative level, Uric Acid (C00366) (listed as V): 0.5 and 0.9 and 1.4 and 0.242 and 0.282 and 0.253
Relative level, Urocanate (C00785) (listed as V): 0.542 and 1.3 and 1.4 and 0.452 and 0.8 and 0.7
Relative level, Val (C00183) (listed as V): 1.1 and 1.3 (2×) and 1.5 and 0.9 (2×)
Relative level, Vit-C (C00072) (listed as V): 5.1 and 1.4 (2×) and 2.3 and 0.5 and 0.2
Relative level, Xanthine (C00385) (listed as V): 0.9 and 1.7 and 2.5 and 2.4 and 0.843 and 0.6
Glucose labeling, 2-HG [1]: 9.00% and 8.24% and 8.56% and 6.59% and 3.26% and 5.24%
Relative level, 2-HG [1]: 1.5 and 1.0 and 1.3 and 0.9 and 0.545 and 0.5
Glucose labeling, 2-HIC [2]: -2.22e-14% and 0.00% (5×)
Relative level, 2-HIC [2]: 1.2 (2×) and 1.5 (2×) and 0.8 and 0.9
Glucose labeling, 2-KIC (metabolite 2-KIC (C00233)): 0.00%
Relative level, 2-KIC (metabolite 2-KIC (C00233), listed as V): 1.1 and 1.2 and 1.3 and 0.9 (2×) and 0.8
Glucose labeling, 2-Oxoadipate (metabolite 2-Oxoadipate (C00322)): 0.00%
Relative level, 2-Oxoadipate (metabolite 2-Oxoadipate (C00322), listed as V): 1.3 and 1.0 (2×) and 1.4 and 1.1 and 0.759
Glucose labeling, 2-Oxosuccinamate (metabolite 2-Oxosuccinamate (C02362)): 0.0737%
Relative level, 2-Oxosuccinamate (metabolite 2-Oxosuccinamate (C02362), listed as V): 0.8 and 0.9 and 1.6 and 2.4 and 0.5 and 0.438
Glucose labeling, 3PG [3]: 98.64% and 92.25% and 93.08% and 80.82% and 100.00% (2×)
Relative level, 3PG [3]: 1.3 and 0.262 and 0.5 (2×) and 0.0899 and 0.0949
Glucose labeling, 4-OH-PheLac (metabolite 4-OH-PheLac (C03672)): 0.00%
Relative level, 4-OH-PheLac (metabolite 4-OH-PheLac (C03672), listed as V): 1.0 and 1.1 and 1.3 and 0.7 and 0.5 and 0.6
Glucose labeling, 5-Oxoproline [4]: 1.06% and 0.96% and 1.16% and 0.74% (2×) and 0.98%
Relative level, 5-Oxoproline [4]: 1.0 (2×) and 1.1 (2×) and 0.9 and 0.7
Glucose labeling, 5M-adenosine (metabolite 5M-adenosine (C00170)): 0.00%
Relative level, 5M-adenosine (metabolite 5M-adenosine (C00170), listed as V): 1.7 and 1.9 (2×) and 1.3 (2×) and 1.4
Glucose labeling, A [5]: 0.0217% and 0.39% and 0.36% and 0.0233% and 0.0286% and 0.01%
Relative level, A [5]: 1.7 and 1.1 and 1.2 and 4.1 and 1.0 and 1.8
Glucose labeling, ADP [6]: 63.63% and 60.29% and 63.02% and 59.23% and 57.33% and 59.16%
Relative level, ADP [6]: 2.2 and 1.0 and 1.4 and 1.2 and 0.6 (2×)
Glucose labeling, AMP [7]: 58.98% and 57.42% and 62.07% and 26.04% and 58.67% and 50.37%
Relative level, AMP [7]: 2.8 and 1.7 and 2.2 and 3.0 and 0.8 and 0.7
Glucose labeling, ATP [8]: 65.50% and 64.37% and 65.03% and 64.82% and 61.07% and 61.72%
Relative level, ATP [8]: 1.5 and 0.6 and 0.849 and 0.9 and 0.466 and 0.5
Glucose labeling, Ac-carnitine [9]: 29.64% and 30.01% and 28.25% and 21.49% and 24.07% and 21.63%
Relative level, Ac-carnitine [9]: 1.1 (2×) and 1.2 and 0.7 (2×) and 0.8
Glucose labeling, Ac-choline [10]: 0.00429% and 0.00459% and 0.00523% and 0.00396% and 0.00509% and 0.00552%
Relative level, Ac-choline [10]: 0.746 and 0.8 (3×) and 0.76 and 0.9
Glucose labeling, Aconitate [11]: 33.62% and 26.91% and 31.71% and 21.17% and 28.64% and 25.94%
Relative level, Aconitate [11]: 1.0 and 0.433 and 0.659 and 0.53 and 0.3 and 0.355
Glucose labeling, Adenine [12]: 1.88e-5% and 1.21e-5% and 0.00361% and 1.25e-5% and 1.11e-5% and 0.0013%
Relative level, Adenine [12]: 1.8 and 3.0 and 3.1 and 41.9 and 2.1 and 1.5
Glucose labeling, Ala [13]: 57.46% and 55.60% and 53.77% and 47.90% and 47.23% and 52.00%
Relative level, Ala [13]: 1.3 and 1.5 (2×) and 0.9 (2×) and 1.0
Glucose labeling, Allantoin [14]: 0.00% (5×) and -2.22e-14%
Relative level, Allantoin [14]: 1.3 (2×) and 1.7 and 1.1 and 0.7 and 1.0
Glucose labeling, Arg [15]: 0.00452% and 0.00428% and 0.00453% and 0.00405% and 0.00437% and 0.00476%
Relative level, Arg [15]: 1.5 and 1.7 and 1.6 and 0.9 (2×) and 1.1
Glucose labeling, Arg-Succ [16]: 10.44% and 8.30% and 5.56% and 3.28% and 1.95% and 6.31%
Relative level, Arg-Succ [16]: 1.4 and 1.3 and 1.5 and 0.9 and 0.6 and 0.5
Glucose labeling, Asn (metabolite Asn (C00152), listed as V): 5.14e-5% and 2.85e-6% and 2.32e-6% and 0.000702% and 2.84e-6% and 2.39e-6%
